Experimental data from patent US8207216B2, “Benzofuran-3-yl(indol-3-yl) maleimides as potent GSK3 inhibitors” (The Board of Trustees of the University of Illinois, priority 2006, dated 2012).

Assays:
MIAPaCa-2 = experiment: Antiproliferation MTS assay, pancreatic cancer cells; format: cell-based; conditions: Homo sapiens
BXPC-3 = experiment: as above; format: cell-based; conditions: Homo sapiens, BXPC-3, as reported in Gaisina et al. (2009) J. Med. Chem. 52(7), 1853-1863
HupT3 = experiment: as above; format: cell-based; conditions: Homo sapiens, HuP-T3, as reported in Gaisina et al. (2009) J. Med. Chem. 52(7), 1853-1863
[1] = system: pancreatic cancer cell lines; conditions: BXPC3, HupT3 and MiaPaCa-2; Ougolkov et al. (2007) Blood 110: 735-742; cited from earlier work
GSK3α = GSK3α (Homo sapiens, UniProt P49840); experiment: Inhibition of various kinases (% inhibition); format: biochemical
Excerpt: (§1) Additional examples of selectivity are illustrated in Table 4.

PKCβ2 = PKCβ2 (Homo sapiens, UniProt P05771); experiment: Inhibition of various kinases (% inhibition); format: biochemical
Excerpt: as §1

CDK2 = CDK2 (Homo sapiens, UniProt P24941); experiment: Inhibition of various kinases (% inhibition); format: biochemical
Excerpt: as §1

PDK1 [2] = target: T1, PDK1 (Homo sapiens, UniProt O15530); experiment: Inhibition of various kinases (% inhibition); format: biochemical
T1 sequence (O15530 1-556): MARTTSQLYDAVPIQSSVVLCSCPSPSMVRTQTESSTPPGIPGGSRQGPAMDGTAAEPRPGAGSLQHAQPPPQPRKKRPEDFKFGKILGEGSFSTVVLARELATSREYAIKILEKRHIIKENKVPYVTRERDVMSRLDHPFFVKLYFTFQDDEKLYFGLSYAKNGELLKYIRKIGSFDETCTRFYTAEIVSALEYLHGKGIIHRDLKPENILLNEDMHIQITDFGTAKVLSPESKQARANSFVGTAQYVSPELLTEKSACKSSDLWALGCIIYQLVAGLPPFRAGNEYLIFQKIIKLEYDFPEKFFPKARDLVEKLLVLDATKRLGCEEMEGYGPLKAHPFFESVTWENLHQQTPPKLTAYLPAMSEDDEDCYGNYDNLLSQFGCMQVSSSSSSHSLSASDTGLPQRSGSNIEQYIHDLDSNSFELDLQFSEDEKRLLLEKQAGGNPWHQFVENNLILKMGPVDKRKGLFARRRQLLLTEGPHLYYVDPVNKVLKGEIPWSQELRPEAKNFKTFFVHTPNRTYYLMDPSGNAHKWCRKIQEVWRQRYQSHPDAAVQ
Excerpt: as §1

XIAP = experiment: NFκB-mediated expression of XIAP in pancreatic cancer cells; format: cell-based
GSK-3β = GSK-3β activity in cells by glycogen synthase phosphorylation, Western immunoblotting; format: cell-based
[3] = target: T2, recombinant human His6-GSK-3β (Homo sapiens, UniProt P49841); experiment: GSK-3β kinase assay, [γ32P] transfer to primed glycogen synthase peptide; format: biochemical; conditions: 10 μM ATP; 10 μM pGSM peptide; 30 minutes at 30° C.; read-out: IC50 (nM), GSK-3β inhibition;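 further: phosphate incorporation quantified by liquid scintillation counting of the filters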
T2 construct: His6; purchased EMD Biosciences

C57BL/6J mice = experiment: Amphetamine/chlordiazepoxide hyperactivity model of mania, open field locomotor activity; format: in vivo; conditions: 5-ING-135 50 mg/kg, 5 min pretreatment; amphetamine 4 mg/kg + chlordiazepoxide 2.5 mg/kg; 60 min
Experimental: Hyperactivity models are often used to mimic the mania associated with bipolar disorder.
Certain benzofuran-based ligands of this invention were studied in a novel mouse model of mania that has recently been validated with several clinically effective mood stabilizers. […] Mice were then injected with amphetamine (4 mg/kg) or amphetamine (4 mg/kg) and chlordiazepoxide (2.5 mg/kg) and locomotor activity was monitored for 60 min. The open field is a square box surrounded by an array of infra-red beams and their behavior is automatically recorded for 60 minutes in the open field test chamber (10.75″×10.75″×8″H with infra-red (I/R) array, model ENV 510, MED Associates). After this period the animals were returned to their home cages and then to the main colony.
Control treatments are as indicated. FIG. 1B illustrates similar locomotion activity data of treated mice measured in cm over 5 minute intervals for 60 minutes.

SKOV3 = experiment: Antiproliferation assay, ovarian cancer cells; format: cell-based; conditions: Homo sapiens, SK-OV-3; ovarian cancer cell proliferation
Experimental: (§2) The pancreatic cancer cell lines BxPc-3, HupT3, MiaPaCa-2, Panc 04.03, and SU86.86 were obtained from ATCC (Rockville, Md.) and were grown in medium (DMEM or RPMI) containing 10% fetal calf serum and L-glutamine. Pancreatic cancer cells were plated out in duplicate into 6-wells of a 96-well microtiter plate at 2.5−4×10^3 cells per well. Four-hours post plating, individual wells were treated with diluent (DMSO) or varying concentrations of commercial compounds, AR-A014418 and SB216763, or the indicated GSK inhibitors of this invention from a concentration of 1 nM to 50 microM. […] The IC50s were calculated using XLfit (IDBS Limited, Guildford, UK).
(§3) Similar antiproliferation assays were performed using ovarian cancer cells. Compound 40 is of particular interest for inhibition of ovarian cancer cell proliferation.

OVCA432 = experiment: Antiproliferation assay, ovarian cancer cells; format: cell-based; conditions: ovarian cancer cell proliferation
Experimental: as §2, §3

[4] = system: pancreatic cancer cell lines; experiment: Proliferation and survival of pancreatic cancer cells (overall statements); format: cell-based
Experimental: as §2

Flt-3 = Flt-3 (Homo sapiens, UniProt P36888); experiment: Kinase panel (Novartis); format: biochemical
PDK1 [5] = target: T1, PDK1; experiment: Kinase panel (Novartis); format: biochemical
b-Raf-V599E = b-Raf-V599E (Homo sapiens, UniProt P15056, V600E); experiment: Kinase panel (Novartis); format: biochemical
FGFR-3-K650E = FGFR-3-K650E (Homo sapiens, UniProt P22607, K650E); experiment: Kinase panel (Novartis); format: biochemical
c-Abl = c-Abl (Homo sapiens, UniProt P00519); experiment: Kinase panel (Novartis); format: biochemical
Ret = Ret (Homo sapiens, UniProt P07949); experiment: Kinase panel (Novartis); format: biochemical
IGF-1R = IGF-1R (Homo sapiens, UniProt P08069); experiment: Kinase panel (Novartis); format: biochemical
Tek = Tek (Homo sapiens, UniProt Q02763); experiment: Kinase panel (Novartis); format: biochemical
KDR = KDR (Homo sapiens, UniProt P35968); experiment: Kinase panel (Novartis); format: biochemical
CDK2/A = CDK2/A (Homo sapiens, UniProt P24941); experiment: Kinase panel (Novartis); format: biochemical
c-src = c-src (Homo sapiens, UniProt P12931); experiment: Kinase panel (Novartis); format: biochemical
FAK = FAK (Homo sapiens, UniProt Q05397); experiment: Kinase panel (Novartis); format: biochemical
EphB4 = EphB4 (Homo sapiens, UniProt P54760); experiment: Kinase panel (Novartis); format: biochemical
c-Met = c-Met (Homo sapiens, UniProt P08581); experiment: Kinase panel (Novartis); format: biochemical
Axl = Axl (Homo sapiens, UniProt P30530); experiment: Kinase panel (Novartis); format: biochemical
JAK-2 = JAK-2 (Homo sapiens, UniProt O60674); experiment: Kinase panel (Novartis); format: biochemical
HER-1 = HER-1 (Homo sapiens, UniProt P00533); experiment: Kinase panel (Novartis); format: biochemical
c-Abl-T3151 = c-Abl-T3151 (Homo sapiens, UniProt P00519, T315I); experiment: Kinase panel (Novartis); format: biochemical
mice = conditions: Hanania et al. 2005, Brody et al. 2003; cited from earlier work
[6] = MIA PaCa-2, as reported in Gaisina et al. (2009) J. Med. Chem. 52(7), 1853-1863

T2 sequence (P49841 whole entry): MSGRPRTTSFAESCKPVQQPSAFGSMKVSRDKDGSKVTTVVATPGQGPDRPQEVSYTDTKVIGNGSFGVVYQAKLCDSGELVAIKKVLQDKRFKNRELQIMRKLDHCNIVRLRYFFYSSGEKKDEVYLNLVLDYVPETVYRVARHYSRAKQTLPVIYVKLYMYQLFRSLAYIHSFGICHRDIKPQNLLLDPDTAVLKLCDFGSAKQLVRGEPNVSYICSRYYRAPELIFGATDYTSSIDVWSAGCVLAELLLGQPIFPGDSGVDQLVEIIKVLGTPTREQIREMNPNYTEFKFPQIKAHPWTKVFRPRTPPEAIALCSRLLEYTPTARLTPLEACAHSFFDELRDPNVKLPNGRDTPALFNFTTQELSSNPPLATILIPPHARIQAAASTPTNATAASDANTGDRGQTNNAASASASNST
GSK3α, sequence (P49840 whole entry, species assumed): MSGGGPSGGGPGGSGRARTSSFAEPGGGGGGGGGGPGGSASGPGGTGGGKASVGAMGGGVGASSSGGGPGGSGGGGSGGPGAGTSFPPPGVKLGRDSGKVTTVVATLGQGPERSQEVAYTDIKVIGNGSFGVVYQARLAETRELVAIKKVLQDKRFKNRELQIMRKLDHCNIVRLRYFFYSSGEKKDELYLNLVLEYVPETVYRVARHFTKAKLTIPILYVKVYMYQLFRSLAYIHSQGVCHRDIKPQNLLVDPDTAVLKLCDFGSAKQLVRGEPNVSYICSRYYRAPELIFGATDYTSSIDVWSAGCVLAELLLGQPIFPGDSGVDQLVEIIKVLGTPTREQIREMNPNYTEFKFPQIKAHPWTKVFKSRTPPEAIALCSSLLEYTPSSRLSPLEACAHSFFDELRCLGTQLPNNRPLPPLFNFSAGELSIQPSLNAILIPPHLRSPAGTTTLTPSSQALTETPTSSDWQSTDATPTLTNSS
PKCβ2, sequence (P05771 1-673 isoform P05771-2): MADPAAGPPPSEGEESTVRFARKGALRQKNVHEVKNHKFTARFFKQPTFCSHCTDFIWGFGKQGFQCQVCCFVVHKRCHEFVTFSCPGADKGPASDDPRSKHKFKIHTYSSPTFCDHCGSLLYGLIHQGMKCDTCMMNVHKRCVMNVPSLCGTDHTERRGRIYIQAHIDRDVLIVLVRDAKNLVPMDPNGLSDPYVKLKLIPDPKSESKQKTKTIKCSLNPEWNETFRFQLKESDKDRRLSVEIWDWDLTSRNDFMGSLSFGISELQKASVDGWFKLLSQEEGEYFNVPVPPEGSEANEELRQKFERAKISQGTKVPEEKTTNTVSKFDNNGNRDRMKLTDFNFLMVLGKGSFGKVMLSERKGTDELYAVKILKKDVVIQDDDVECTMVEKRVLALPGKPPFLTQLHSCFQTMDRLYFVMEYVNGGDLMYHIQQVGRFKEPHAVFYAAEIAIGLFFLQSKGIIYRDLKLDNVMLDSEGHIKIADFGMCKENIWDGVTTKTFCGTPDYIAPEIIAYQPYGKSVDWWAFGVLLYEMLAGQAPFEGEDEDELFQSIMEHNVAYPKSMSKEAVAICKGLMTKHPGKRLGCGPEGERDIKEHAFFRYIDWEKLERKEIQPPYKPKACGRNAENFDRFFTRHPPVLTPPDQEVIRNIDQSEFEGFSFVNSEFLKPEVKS
EphB4, sequence (P54760 16-987, species assumed): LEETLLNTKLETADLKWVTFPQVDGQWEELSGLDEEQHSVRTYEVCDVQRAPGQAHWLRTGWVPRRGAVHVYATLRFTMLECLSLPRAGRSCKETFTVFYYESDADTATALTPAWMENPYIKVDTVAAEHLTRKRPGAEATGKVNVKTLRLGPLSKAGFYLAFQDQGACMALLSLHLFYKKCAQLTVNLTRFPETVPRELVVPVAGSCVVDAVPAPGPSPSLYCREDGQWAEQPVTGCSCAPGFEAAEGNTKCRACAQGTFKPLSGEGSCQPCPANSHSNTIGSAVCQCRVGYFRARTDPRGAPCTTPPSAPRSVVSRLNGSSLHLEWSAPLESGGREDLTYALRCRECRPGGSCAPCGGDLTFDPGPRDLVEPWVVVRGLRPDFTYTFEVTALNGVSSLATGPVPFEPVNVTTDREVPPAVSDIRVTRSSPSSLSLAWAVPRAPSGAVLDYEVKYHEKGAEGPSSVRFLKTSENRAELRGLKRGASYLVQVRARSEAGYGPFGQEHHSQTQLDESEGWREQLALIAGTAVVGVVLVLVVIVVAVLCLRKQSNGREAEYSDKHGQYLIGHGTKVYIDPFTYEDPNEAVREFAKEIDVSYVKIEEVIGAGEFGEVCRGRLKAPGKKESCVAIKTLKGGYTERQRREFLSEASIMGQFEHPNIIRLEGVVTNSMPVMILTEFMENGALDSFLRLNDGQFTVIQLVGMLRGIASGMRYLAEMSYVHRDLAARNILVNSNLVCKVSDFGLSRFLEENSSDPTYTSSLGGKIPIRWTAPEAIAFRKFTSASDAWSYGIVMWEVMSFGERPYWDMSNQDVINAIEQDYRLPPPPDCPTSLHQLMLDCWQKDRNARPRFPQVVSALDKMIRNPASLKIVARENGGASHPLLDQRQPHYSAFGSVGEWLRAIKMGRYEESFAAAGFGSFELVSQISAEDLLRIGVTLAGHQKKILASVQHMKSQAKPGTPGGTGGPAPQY
JAK-2, sequence (O60674 whole entry, species assumed): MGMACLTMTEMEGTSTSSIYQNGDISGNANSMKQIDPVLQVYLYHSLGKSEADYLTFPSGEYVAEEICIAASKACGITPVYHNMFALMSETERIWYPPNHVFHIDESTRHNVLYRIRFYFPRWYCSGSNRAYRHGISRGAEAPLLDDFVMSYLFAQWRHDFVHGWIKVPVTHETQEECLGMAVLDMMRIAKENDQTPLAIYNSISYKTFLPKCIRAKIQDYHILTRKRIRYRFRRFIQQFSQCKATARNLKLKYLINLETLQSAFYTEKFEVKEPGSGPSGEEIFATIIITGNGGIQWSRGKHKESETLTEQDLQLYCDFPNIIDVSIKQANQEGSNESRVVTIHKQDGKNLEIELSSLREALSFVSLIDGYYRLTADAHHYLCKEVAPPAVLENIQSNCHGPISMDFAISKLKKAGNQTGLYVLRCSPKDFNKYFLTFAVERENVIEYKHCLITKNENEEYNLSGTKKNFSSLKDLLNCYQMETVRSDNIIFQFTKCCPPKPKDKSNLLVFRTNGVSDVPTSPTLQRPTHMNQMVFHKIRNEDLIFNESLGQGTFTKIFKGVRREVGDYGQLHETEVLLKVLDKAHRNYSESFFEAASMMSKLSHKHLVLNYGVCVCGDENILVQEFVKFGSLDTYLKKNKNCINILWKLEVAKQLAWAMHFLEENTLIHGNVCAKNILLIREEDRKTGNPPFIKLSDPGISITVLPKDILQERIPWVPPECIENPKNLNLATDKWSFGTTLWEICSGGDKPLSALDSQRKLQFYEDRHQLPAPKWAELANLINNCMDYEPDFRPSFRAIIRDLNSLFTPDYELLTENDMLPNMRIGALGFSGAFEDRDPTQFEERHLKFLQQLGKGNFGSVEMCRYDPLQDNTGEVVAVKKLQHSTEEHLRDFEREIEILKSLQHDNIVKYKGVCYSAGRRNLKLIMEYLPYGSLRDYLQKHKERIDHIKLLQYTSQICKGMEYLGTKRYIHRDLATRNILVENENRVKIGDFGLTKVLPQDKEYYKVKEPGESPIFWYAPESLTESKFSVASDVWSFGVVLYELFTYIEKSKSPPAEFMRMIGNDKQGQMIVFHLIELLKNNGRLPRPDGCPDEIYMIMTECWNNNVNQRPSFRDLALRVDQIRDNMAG
KDR, sequence (P35968 20-1356, species assumed): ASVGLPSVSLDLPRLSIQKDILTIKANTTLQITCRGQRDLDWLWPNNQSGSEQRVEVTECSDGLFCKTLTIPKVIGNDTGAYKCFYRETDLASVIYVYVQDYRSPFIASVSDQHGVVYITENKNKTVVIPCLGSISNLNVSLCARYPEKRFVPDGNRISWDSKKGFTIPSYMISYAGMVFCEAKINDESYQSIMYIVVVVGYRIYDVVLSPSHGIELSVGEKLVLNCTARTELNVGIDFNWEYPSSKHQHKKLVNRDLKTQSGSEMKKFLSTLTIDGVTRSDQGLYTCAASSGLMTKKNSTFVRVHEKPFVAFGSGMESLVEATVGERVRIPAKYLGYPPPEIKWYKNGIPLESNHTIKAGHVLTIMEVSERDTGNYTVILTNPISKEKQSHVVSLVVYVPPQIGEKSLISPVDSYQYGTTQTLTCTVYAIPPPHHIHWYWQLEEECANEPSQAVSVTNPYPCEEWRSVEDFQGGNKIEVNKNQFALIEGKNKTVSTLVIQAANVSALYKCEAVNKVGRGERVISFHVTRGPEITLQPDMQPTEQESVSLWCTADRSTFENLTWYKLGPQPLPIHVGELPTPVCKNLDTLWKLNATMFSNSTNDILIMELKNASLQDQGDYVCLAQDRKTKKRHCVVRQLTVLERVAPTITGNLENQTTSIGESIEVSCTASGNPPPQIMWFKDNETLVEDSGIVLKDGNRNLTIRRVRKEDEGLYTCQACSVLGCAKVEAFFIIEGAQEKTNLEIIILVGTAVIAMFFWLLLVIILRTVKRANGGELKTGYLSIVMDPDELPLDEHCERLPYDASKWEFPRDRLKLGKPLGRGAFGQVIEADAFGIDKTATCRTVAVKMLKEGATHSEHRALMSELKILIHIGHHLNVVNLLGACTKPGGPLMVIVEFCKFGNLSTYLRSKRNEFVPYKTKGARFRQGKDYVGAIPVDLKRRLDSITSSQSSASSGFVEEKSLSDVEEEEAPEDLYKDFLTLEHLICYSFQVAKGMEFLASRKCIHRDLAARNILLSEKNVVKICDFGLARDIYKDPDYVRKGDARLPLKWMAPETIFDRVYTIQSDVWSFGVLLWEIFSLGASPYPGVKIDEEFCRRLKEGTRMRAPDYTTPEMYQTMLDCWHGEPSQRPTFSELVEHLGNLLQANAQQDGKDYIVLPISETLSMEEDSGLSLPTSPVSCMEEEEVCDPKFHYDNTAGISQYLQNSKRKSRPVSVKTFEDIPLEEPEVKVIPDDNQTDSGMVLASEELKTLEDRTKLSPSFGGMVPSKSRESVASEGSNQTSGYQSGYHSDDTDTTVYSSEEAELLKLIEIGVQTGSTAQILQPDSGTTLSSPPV

COc1ccc(CNC(=O)Nc2ncc([N+](=O)[O-])s2)cc1 [AR-A014418, reference compound]
IC50 (MIAPaCa-2; [6]): 29 ± 1.7 µM
IC50 (MIAPaCa-2; MIA PaCa-2, 72 hrs, MTS): 25 µM
IC50 (BXPC-3): 14 ± 0.6 µM
IC50 (HupT3): 22 ± 2.1 µM
Pancreatic cancer cell proliferation, reference compounds [1]: significant decrease in pancreatic cancer cell proliferation

COc1cccc2c(C3=C(c4cn(C)c5cc(I)c(F)cc45)C(=O)NC3=O)coc12 [Compound 10, 3-(5-Fluoro-6-iodo-1-methyl-1H-indol-3-yl)-4-(7-methoxy-benzofuran-3-yl)-pyrrole-2,5-dione]
inhibition at 1 µM (GSK3α): 60%
inhibition at 10 µM (GSK3α): 95%
inhibition at 1 µM (PKCβ2): 2%
inhibition at 10 µM (PKCβ2): 15%
inhibition at 1 µM (CDK2): 9%
inhibition at 10 µM (CDK2): 35%
inhibition at 1 µM (PDK1 [2]): -1%
inhibition at 10 µM (PDK1 [2]): 6%
NFκB-mediated expression of XIAP (XIAP): pronounced decrease in NFκB-mediated expression of XIAP
GSK-3β activity in pancreatic cancer cells (phosphorylation of glycogen synthase) (GSK-3β): effectively inhibited GSK-3β activity
IC50 [3]: 247 ± 28 nM

C#Cc1ccc2c(c1)c(C1=C(c3coc4ccccc34)C(=O)NC1=O)cn2C [Compound 36, 3-Benzofuran-3-yl-4-(5-ethynyl-1-methyl-1H-indol-3-yl)-pyrrole-2,5-dione]
inhibition at 1 µM (GSK3α): 89%
inhibition at 10 µM (GSK3α): 100%
inhibition at 1 µM (PKCβ2): 24%
inhibition at 10 µM (PKCβ2): 74%
inhibition at 1 µM (CDK2): 68%
inhibition at 10 µM (CDK2): 100%
inhibition at 1 µM (PDK1 [2]): 14%
inhibition at 10 µM (PDK1 [2]): 27%
IC50 (MIAPaCa-2; MIA PaCa-2, 72 hrs, MTS): > 50 µM
Inhibition of hyperactivity produced by amphetamine/chlordiazepoxide (locomotor activity) (C57BL/6J mice): exhibited inhibition of the hyperactivity
IC50 [3]: 9.6 ± 4 nM

Cn1cc(C2=C(c3coc4ccc(F)cc34)C(=O)NC2=O)c2cc3c(cc21)OCO3 [Compound 40, 3-(5-Fluoro-benzofuran-3-yl)-4-(5-methyl-5H-[1,3]dioxolo[4,5-f]indol-7-yl)-pyrrole-2,5-dione]
NFκB-mediated expression of XIAP (XIAP): pronounced decrease in NFκB-mediated expression of XIAP
GSK-3β activity in pancreatic cancer cells (phosphorylation of glycogen synthase) (GSK-3β): effectively inhibited GSK-3β activity
IC50 [3]: 708 ± 156 nM
IC50 (SKOV3): 10.5 µM
IC50 (OVCA432): 11.2 µM

COc1cc2c(C3=C(c4coc5ccccc45)C(=O)NC3=O)cn(C)c2cc1Cl [Compound 42, 3-Benzofuran-3-yl-4-(6-chloro-5-methoxy-1-methyl-1H-indol-3-yl)-pyrrole-2,5-dione]
IC50 (MIAPaCa-2; MIA PaCa-2, 72 hrs, MTS): > 50 µM
GSK-3β activity in pancreatic cancer cells (phosphorylation of glycogen synthase) (GSK-3β): did not affect GSK-3β activity
Proliferation and survival of pancreatic cancer cells [4]: did not affect GSK-3β activity, proliferation or survival
IC50 [3]: 440 ± 22 nM

Cn1cc(C2=C(c3coc4ccccc34)C(=O)NC2=O)c2ccc(O)cc21 [Compound 45, 3-Benzofuran-3-yl-4-(6-hydroxy-1-methyl-1H-indol-3-yl)-pyrrole-2,5-dione]
IC50 (Flt-3): > 10 µM
IC50 (PDK1 [5]): 0.73 µM
IC50 (b-Raf-V599E): > 10 µM
IC50 (FGFR-3-K650E): 7 µM
IC50 (c-Abl): > 10 µM
IC50 (Ret): 5 µM
IC50 (IGF-1R): > 10 µM
IC50 (Tek): > 10 µM
IC50 (KDR): 2.2 µM
IC50 (CDK2/A): > 10 µM
IC50 (c-src): 4.5 µM
IC50 (FAK): > 10 µM
IC50 (EphB4): > 10 µM
IC50 (c-Met): > 10 µM
IC50 [3]: 15 ± 3 nM
IC50 (Axl): > 10 µM
IC50 (JAK-2): > 10 µM
IC50 (HER-1): 6.3 µM
IC50 (c-Abl-T3151): > 10 µM

Cn1cc(C2=C(c3coc4ccc(F)cc34)C(=O)NC2=O)c2ccc(O)cc21 [Compound 46, 3-(5-Fluoro-benzofuran-3-yl)-4-(6-hydroxy-1-methyl-1H-indol-3-yl)-pyrrole-2,5-dione]
Inhibition of hyperactivity produced by amphetamine/chlordiazepoxide (locomotor activity) (C57BL/6J mice): exhibited inhibition of the hyperactivity
IC50 [3]: 14 ± 3 nM

Cn1cc(C2=C(c3ccc(Cl)cc3Cl)C(=O)NC2=O)c2ccccc21 [SB216763, reference compound]
IC50 (MIAPaCa-2; [6]): 25 ± 0.9 µM
IC50 (MIAPaCa-2; MIA PaCa-2, 72 hrs, MTS): 25 µM
Pancreatic cancer cell proliferation, reference compounds [1]: significant decrease in pancreatic cancer cell proliferation

CCCC(CCC)C(=O)O [valporate]
Sensorimotor gating (prepulse inhibition) (mice): improve sensorimotor gating
